Data published in patent US20220370464A1, “COMPOSITIONS AND METHODS OF TREATING OR PREVENTING OCULAR INFECTIONS WITH FILOCICLOVIR” (Microbiotix, Inc., priority 2019, published 2022).
Read-outs that look alike come from different tables or passages of the source.

Tests used:
Adenovirus 5 (AdV5) = assay: Cytopathic effects (CPE) reduction assay, AdV5 in HFF cells, 384-well; format: cell-based, human adenovirus 5 (AdV5); settings: for EC50: AdV 384 Well CPE, HFF cells, average and SD from five independent experiments
Method: Cell monolayers were infected at a multiplicity of infection (MOI) of approximately 0.005 PFU/cell with virus strains including AdV5. […] Cytopathology was determined by the addition of CellTiter-Glo® reagent (Promega, Madison, Wis.). Concentrations of antiviral test compounds sufficient to reduce CPE by 50% (EC50) were interpolated from the experimental data using standard methods in Microsoft® Excel.

[1] = test system: human foreskin fibroblast (HFF) cells; assay: Cytotoxicity, CellTiter-Glo cell viability in HFF cells
Method: (§1) Human foreskin tissue was obtained from the University of Alabama at Birmingham tissue procurement facility with approval from the Institutional Review Board. The tissue was stored at 4° C. in cell culture medium consisting of minimum essential media (MEM) with Earle's salts supplemented with 10% fetal bovine serum (FBS; HyClone, Inc., Logan, Utah) and standard concentration of L-glutamine, amphotericin B (Fungizone), and vancomycin. The tissue was then placed in a phosphate-buffered saline solution, minced, and rinsed to remove the red blood cells. Tissue fragments were then resuspended in a trypsin-EDTA solution and incubated at 37° C. to disperse the cells, which were then collected by centrifugation. Cell pellets were then resuspended in 4 ml culture medium, placed in a 25-cm^2 tissue culture flask, and incubated at 37° C. for 24 h. The culture medium was then replaced with fresh medium and condition of the cells was monitored daily until a confluent cell monolayer was formed. The HFF cells were then expanded through serial passages in standard growth medium of MEM with Earle's salts supplemented with 10% FBS, L-glutamine, penicillin, and gentamicin. Each lot of cells was confirmed to be free of mycoplasma infection and routinely passaged or used for assays at or before passage 10.
(§2) Antiviral and cytotoxicity data were obtained in a series of three to five separate experiments for each virus to provide an accurate estimate of antiviral activity and statistical data. Each assay included positive and negative control compounds as well as infected and uninfected controls to ensure the integrity of the experiment.
(§3) The CPE reduction assays were performed in monolayers of human foreskin fibroblast (HFF) cells (5000/well) in 384-well plates in assay media consisting of MEM with Earle's salts, 2% FBS and standard concentrations of L-glutamine, penicillin and gentamycin. 5000 cells were seeded in 384-well microtiter plates and incubated at 37° C. in a humidified 5% CO2 incubator for 24 hours to allow for formation of confluent monolayers.
(§4) Cell monolayers were infected at a multiplicity of infection (MOI) of approximately 0.005 PFU/cell with virus strains including AdV5. […] Cytopathology was determined by the addition of CellTiter-Glo® reagent (Promega, Madison, Wis.).

[2] = as above; settings: human, human foreskin fibroblast (HFF) cells
Method: as §1, §2, §3, §4

ocular AdV infections = settings: topical, literature; cited from earlier work
[3] = HFF cells, 384-well, average and SD from five independent experiments

| SMILES | EC50 (Adenovirus 5 (AdV5)) [µM] | CC50 [1, 3] [µM] | further results |
| --- | --- | --- | --- |
| O=c1[nH]c(=O)n([C@@H]2O[C@H](CO)[C@@H](O)[C@@H]2F)cc1I [FIAU] | > 100 |  | CC50 [1]: > 100 µM |
| O=c1[nH]c(=O)n([C@@H]2CO[C@H](CO)O2)cc1/C=C/Br [L-BHDU, L-Bromovinyl-Hydroxymethyl-Dioxolan Uracil] | > 100 |  | CC50 [1]: > 100 µM |
| O=c1[nH]c(=S)c(I)cn1[C@H]1C[C@H](O)[C@@H](CO)O1 [4-thio-IDU, 4-thioidoxuridine] |  | 26 ± 24 | EC50 (Adenovirus 5 (AdV5); Human mastadenovirus C): 11 ± 9.4 µM |
| OC[C@H]1O[C@@H](n2c(Br)nc3cc(Cl)c(Cl)cc32)[C@H](O)[C@@H]1O [BDCRB, bromodichlororibobenzimidazole] | 70 ± 39 | 91 ± 13 |  |
| Nc1ncnc2c1ncn2CCOCP(=O)(O)O [PMEA, adefovir] |  | > 100 |  |
| Nc1nc(O)c2ncn(COC(CO)CO)c2n1 [GCV, ganciclovir] |  |  | selectivity ratio (Adenovirus 5 (AdV5); human, adenovirus 5, HFF cells, read-out: SI (selective index, CC50/EC50)): ≥ 1.5; CC50 [2]: > 100 µM; efficacy in the treatment of AdV conjunctivitis in clinical trials (ocular AdV infections): lacks efficacy |
| Nc1nc2c(ncn2COCCO)c(=O)[nH]1 [ACV, acyclovir] |  |  | CC50 [2]: > 100 µM |
| Cc1cn([C@H]2C[C@H](O)[C@]3(CO)C[C@H]23)c(=O)[nH]c1=O [N-MCT, N-methanocarbathymidine] | 57 ± 47 | 72 ± 33 |  |
